One block for each compound: values may come before it. Calls of active or inactive are those of the source. The rule behind the calls is not given here.
Tests used:
[1] = target: Transcriptional coactivator YAP1 (Homo sapiens) (UniProt P46937); assay: Inhibition of YAP1 (unknown origin) assessed as disruption in YAP1/OCT4 interaction at 10 uM by ELISA relative to control
[2] = target: Transcriptional coactivator YAP1 (Homo sapiens) (UniProt P46937); assay: Inhibition of YAP1 (unknown origin) assessed as disruption in YAP1/OCT4 interaction at 50 uM by cell based assay
NCI-H146 [3] = assay: Effect on expression of Oct4 mRNA expression in human NCI-H146 cells at 5 to 10 uM incubated for 72 hrs by RT-PCR method; format: cell-based; conditions: nci-h146, 72 h
[4] = target: Transcriptional coactivator YAP1 (Homo sapiens) (UniProt P46937); assay: Inhibition of YAP1 in human NCI-H146 cells assessed as suppression of Sox2 mRNA expression at 5 to 10 uM incubated for 72 hrs by RT-PCR method; format: cell-based
[5] = target: Transcriptional coactivator YAP1 (Homo sapiens) (UniProt P46937); assay: Inhibition of YAP1 in human NCI-H1650 cells assessed as suppression of PD-L1 mRNA expression at 5 to 10 uM incubated for 72 hrs by RT-PCR method; format: cell-based
[6] = target: Transcriptional coactivator YAP1 (Homo sapiens) (UniProt P46937); assay: Inhibition of YAP1 in human NCI-H1703 cells assessed as suppression of vimentin mRNA expression at 5 to 10 uM incubated for 72 hrs by RT-PCR method; format: cell-based
[7] = target: Transcriptional coactivator YAP1 (Homo sapiens) (UniProt P46937); assay: Inhibition of YAP1 in human NCI-H1650 cells assessed as suppression of PDK2 mRNA expression at 5 to 10 uM incubated for 72 hrs by RT-PCR method; format: cell-based
[8] = target: Transcriptional coactivator YAP1 (Homo sapiens) (UniProt P46937); assay: Inhibition of YAP1 in human NCI-H146 cells assessed as suppression of HK2 mRNA expression at 5 to 10 uM incubated for 72 hrs by RT-PCR method; format: cell-based
NCI-H1703 [9] = assay: Inhibition of adherence-independent cell growth in human NCI-H1703 cells at 10 uM incubated for 33 days; format: functional, cell-based
[10] = target: Transcriptional coactivator YAP1 (Homo sapiens) (UniProt P46937); assay: Inhibition of YAP1 in human NCI-H1703 cells assessed as suppression of fibronectin mRNA expression at 5 to 10 uM incubated for 72 hrs by RT-PCR method; format: cell-based
NCI-H1650 [11] = assay: Effect on expression of Nanog mRNA expression in human NCI-H1650 cells at 5 to 10 uM incubated for 72 hrs by RT-PCR method; format: cell-based; conditions: nci-h1650, 72 h
[12] = target: Transcriptional coactivator YAP1 (Homo sapiens) (UniProt P46937); assay: Inhibition of YAP1 in human NCI-H1703 cells assessed as suppression of HK2 mRNA expression at 5 to 10 uM incubated for 72 hrs by RT-PCR method; format: cell-based
NCI-H146 [13] = assay: Effect on expression of Nanog mRNA expression in human NCI-H146 cells at 5 to 10 uM incubated for 72 hrs by RT-PCR method; format: cell-based; conditions: nci-h146, 72 h
NCI-H1975 = assay: Cytotoxicity in gefitinib and erlotinib resistant human NCI-H1975 cells assessed as reduction in cell viability at 1 to 10 uM incubated for 72 hrs by MTT assay; format: functional, cell-based
NCI-H1703 [14] = assay: Inhibition of adherence-independent cell growth in human NCI-H1703 cells at 5 uM incubated for 33 days; format: functional, cell-based
NCI-H1703 [15] = assay: Effect on expression of Nanog mRNA expression in human NCI-H1703 cells at 5 to 10 uM incubated for 72 hrs by RT-PCR method; format: cell-based; conditions: nci-h1703, 72 h
[16] = target: Transcriptional coactivator YAP1 (Homo sapiens) (UniProt P46937); assay: Inhibition of YAP1 in human NCI-H1703 cells assessed as suppression of PD-L1 mRNA expression at 5 to 10 uM incubated for 72 hrs by RT-PCR method; format: cell-based
[17] = target: Transcriptional coactivator YAP1 (Homo sapiens) (UniProt P46937); assay: Inhibition of YAP1 in human NCI-H1650 cells assessed as suppression of Sox2 mRNA expression at 5 to 10 uM incubated for 72 hrs by RT-PCR method; format: cell-based
[18] = target: Transcriptional coactivator YAP1 (Homo sapiens) (UniProt P46937); assay: Inhibition of YAP1 in human NCI-H1650 cells assessed as suppression of fibronectin mRNA expression at 5 to 10 uM incubated for 72 hrs by RT-PCR method; format: cell-based
NCI-H1650 [19] = assay: Inhibition of YAP1/TEAD2 interaction in human NCI-H1650 cells assessed as suppression of CTGF mRNA expression at 5 to 10 uM incubated for 72 hrs by RT-PCR method; format: cell-based
NCI-H1650 [20] = assay: Inhibition of adherence-independent cell growth in human NCI-H1650 cells at 5 uM incubated for 33 days; format: functional, cell-based
NCI-H1650 [21] = assay: Inhibition of adherence-independent cell growth in human NCI-H1650 cells at 10 uM incubated for 33 days; format: functional, cell-based
[22] = target: Transcriptional coactivator YAP1 (Homo sapiens) (UniProt P46937); assay: Inhibition of YAP1 in human NCI-H146 cells assessed as suppression of PDK2 mRNA expression at 5 to 10 uM incubated for 72 hrs by RT-PCR method; format: cell-based
NCI-H1650 [23] = assay: Effect on expression of Oct4 mRNA expression in human NCI-H1650 cells at 5 to 10 uM incubated for 72 hrs by RT-PCR method; format: cell-based; conditions: nci-h1650, 72 h
[24] = target: Transcriptional coactivator YAP1 (Homo sapiens) (UniProt P46937); assay: Inhibition of YAP1 in human NCI-H1650 cells assessed as suppression of vimentin mRNA expression at 5 to 10 uM incubated for 72 hrs by RT-PCR method; format: cell-based
NCI-H1703 [25] = assay: Inhibition of YAP1/TEAD2 interaction in human NCI-H1703 cells assessed as suppression of CTGF mRNA expression at 5 to 10 uM incubated for 72 hrs by RT-PCR method; format: cell-based
NCI-H146 [26] = assay: Inhibition of self-renewal capacity in methotrexate insensitive stem-like side-population cells of human NCI-H146 cells assessed as reduction in number of spheres at 2 uM incubated for 3 days after 7 days methotrexate exposure by sphere formation assay; format: functional
[27] = target: Transcriptional coactivator YAP1 (Homo sapiens) (UniProt P46937); assay: Inhibition of YAP1 in human NCI-H1703 cells assessed as suppression of PDK2 mRNA expression at 5 to 10 uM incubated for 72 hrs by RT-PCR method; format: cell-based
NCI-H1703 [28] = assay: Effect on expression of Oct4 mRNA expression in human NCI-H1703 cells at 5 to 10 uM incubated for 72 hrs by RT-PCR method; format: cell-based; conditions: nci-h1703, 72 h
[29] = target: Transcriptional coactivator YAP1 (Homo sapiens) (UniProt P46937); assay: Inhibition of YAP1 in human NCI-H1703 cells assessed as suppression of Sox2 mRNA expression at 5 to 10 uM incubated for 72 hrs by RT-PCR method; format: cell-based
[30] = target: Transcriptional coactivator YAP1 (Homo sapiens) (UniProt P46937); assay: Inhibition of YAP1 in human NCI-H1650 cells assessed as suppression of HK2 mRNA expression at 5 to 10 uM incubated for 72 hrs by RT-PCR method; format: cell-based
NCI-H1650 [31] = assay: Inhibition of self-renewal capacity in stem-like side-population cells of human NCI-H1650 cells assessed as reduction in number of spheres at 1 to 20 uM incubated for 10 days by sphere formation assay; format: functional, cell-based
[32] = target: Transcriptional coactivator YAP1 (Homo sapiens) (UniProt P46937); assay: Inhibition of YAP1 (unknown origin) assessed as disruption in YAP1/OCT4 interaction at 5 uM by ELISA relative to control
[33] = target: Transcriptional coactivator YAP1 (Homo sapiens) (UniProt P46937); assay: Inhibition of YAP1 in human A549 cells assessed as disruption in YAP1/OCT4 co-localization at 25 uM incubated for 48 hrs by double immunofluorescence based assay; format: cell-based
[34] = Cytotoxicity in human cancer associated fibroblasts at 20 to 50 uM incubated for 24 to 48 hrs by cytotracker-red/green dye staining based immunofluorescence microscopy
NCI-H1650 [35] = assay: Inhibition of self-renewal capacity in stem-like side-population cells of human NCI-H1650 cells assessed as reduction in number of spheres at 5 to 50 uM incubated for 10 days by sphere formation assay; format: functional, cell-based
NCI-H1650 [36] = assay: Inhibition of self-renewal capacity in stem-like side-population cells of human NCI-H1650 cells assessed as reduction in number of spheres at 50 uM incubated for 10 days by sphere formation assay; format: functional, cell-based
NCI-H1650 [37] = assay: Cytotoxicity in human NCI-H1650 cells assessed as induction of cell killing in presence of cancer associated fibroblasts at 20 to 50 uM incubated for 24 to 48 hrs by cytotracker-red/green dye staining based immunofluorescence microscopy; format: functional

Transcriptional coactivator YAP1 (Homo sapiens), sequence (P46937 whole entry): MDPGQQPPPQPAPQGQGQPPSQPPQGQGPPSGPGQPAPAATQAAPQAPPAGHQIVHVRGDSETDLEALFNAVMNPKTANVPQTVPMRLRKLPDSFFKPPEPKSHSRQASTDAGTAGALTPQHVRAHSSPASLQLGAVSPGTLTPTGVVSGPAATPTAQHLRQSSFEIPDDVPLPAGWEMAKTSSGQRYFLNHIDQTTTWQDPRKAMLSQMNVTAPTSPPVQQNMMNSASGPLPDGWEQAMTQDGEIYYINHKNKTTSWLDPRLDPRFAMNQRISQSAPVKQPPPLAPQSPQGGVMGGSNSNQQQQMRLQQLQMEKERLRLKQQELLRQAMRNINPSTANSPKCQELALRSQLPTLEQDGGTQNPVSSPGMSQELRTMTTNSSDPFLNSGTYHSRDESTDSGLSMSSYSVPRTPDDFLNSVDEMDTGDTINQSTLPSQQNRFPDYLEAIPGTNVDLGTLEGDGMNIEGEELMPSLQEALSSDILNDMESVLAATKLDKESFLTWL

inhibition [1]: 57%
inhibition [2]: 70%
Structure (SMILES): COC(=O)[C@H](Cc1ccc(OCc2ccccc2)cc1)NC(=O)CC1CCN(Cc2ccccc2)CC1

inhibition [2]: > 77%
inhibition [32]: 97%
Structure (SMILES): COC(=O)[C@H](Cc1ccc(O)cc1)NC(=O)CC1CCN(C(=O)CCc2ccccc2)CC1

inhibition [33]: Active
Structure (SMILES): O=[N+]([O-])c1[nH]cnc1/C=C/c1ccccc1
Activity [34]: Non-Toxic
inhibition (NCI-H1650 [35]): Active
inhibition (NCI-H1650 [36]): Active
Activity (NCI-H1650 [37]): Active

inhibition [2]: 83%
inhibition [32]: 95%
Structure (SMILES): CC(C)NC(=O)[C@H](Cc1ccc(OCc2ccccc2)cc1)NC(=O)CC1CCN(C(=O)OC(C)(C)C)CC1

inhibition [2]: 70%
inhibition [32]: 90%
Structure (SMILES): O=C(CC1CCN(C(=O)CCc2ccccc2)CC1)N[C@@H](Cc1ccc(OCc2ccccc2)cc1)C(=O)NC1CCCCC1

inhibition [2]: > 70%
inhibition [32]: 90%
Structure (SMILES): O=C(CC1CCN(C(=O)CCc2ccccc2)CC1)N[C@@H](Cc1ccc(OCc2ccccc2)cc1)C(=O)NC1CCCC1

Further lines, the compound ahead of its results:

Structure (SMILES): O=[N+]([O-])c1nc[nH]c1/C=C/c1cccc(F)c1
Activity (NCI-H146 [3]): Non-Toxic
inhibition [4]: Active
inhibition [5]: Active
inhibition [6]: Active
inhibition [7]: Active
inhibition [8]: Active
inhibition (NCI-H1703 [9]): Active
inhibition [10]: Active
Activity (NCI-H1650 [11]): Non-Toxic
inhibition [12]: Active
Activity (NCI-H146 [13]): Non-Toxic
Activity (NCI-H1975): Active
inhibition (NCI-H1703 [14]): Active
Activity (NCI-H1703 [15]): Non-Toxic
inhibition [16]: Active
inhibition [17]: Active
inhibition [18]: Active
inhibition (NCI-H1650 [19]): inactive
inhibition (NCI-H1650 [20]): Active
inhibition (NCI-H1650 [21]): Active
inhibition [22]: Active
Activity (NCI-H1650 [23]): Non-Toxic
inhibition [24]: Active
inhibition (NCI-H1703 [25]): inactive
inhibition (NCI-H146 [26]): Active
inhibition [27]: Active
Activity (NCI-H1703 [28]): Non-Toxic
inhibition [29]: Active
inhibition [30]: Active

Structure (SMILES): CCOc1ccc(CCC(=O)N2CCC(CC(=O)N[C@@H](Cc3ccc(OCc4ccccc4)cc3)C(=O)OC)CC2)cc1
inhibition (NCI-H1650 [31]): Active

Structure (SMILES): CCOC(=O)/C(C#N)=C/c1c[nH]c2ccccc12
inhibition (NCI-H1650 [36]): Active

Structure (SMILES): COC(=O)[C@H](Cc1ccc(OCc2ccccc2)cc1)NC(=O)CC1CCN(C(=O)CCc2cccc(C)c2)CC1
inhibition (NCI-H1650 [31]): Active

Structure (SMILES): O=C(CC1CCN(C(=O)CCc2cccc(F)c2)CC1)N[C@@H](Cc1ccc(OCc2ccccc2)cc1)C(=O)O
inhibition (NCI-H1650 [35]): Active

Structure (SMILES): NC(=O)[C@H](Cc1ccc(OCc2ccccc2)cc1)NC(=O)CC1CCN(C(=O)CCc2ccccc2)CC1
inhibition (NCI-H146 [26]): Active

Structure (SMILES): COC(=O)[C@H](Cc1ccc(OCc2ccccc2)cc1)NC(=O)CC1CCN(C(=O)CC(c2ccccc2)c2ccccc2)CC1
inhibition (NCI-H1650 [31]): Active

Source: ChEMBL document CHEMBL4419178, “Yap1 inhibitors that target the interaction of yap1 with oct4” (2018)
